According to PubChem BioAssay (NCI):
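Protocol summary: plate cells (96-well), add compound at 5 concentrations, incubate 48 h, interpolate endpoints linearly. Here, GI50 denotes the concentration required for 50% inhibition of growth. The concentration for full growth arrest is given as TGI.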

How the values were obtained:
Test in all cases: NCI anticancer screen, dose series, 48 h
MCF7 breast = tested on: MCF7 breast
ACHN renal = tested on: ACHN renal
SK-MEL-2 melanoma = tested on: SK-MEL-2 melanoma
RPMI-8226 leukemia = tested on: RPMI-8226 leukemia
LOX IMVI melanoma = tested on: LOX IMVI melanoma
SR leukemia = tested on: SR leukemia
M14 melanoma = tested on: M14 melanoma
TK-10 renal = tested on: TK-10 renal
RXF 393 renal = tested on: RXF 393 renal
SF-268 CNS = tested on: SF-268 CNS

Structure (SMILES)	TGI (MCF7 breast)	TGI (ACHN renal)	TGI (SK-MEL-2 melanoma)	TGI (RPMI-8226 leukemia)	TGI (LOX IMVI melanoma)	TGI (SR leukemia)	TGI (M14 melanoma)	TGI (TK-10 renal)	TGI (RXF 393 renal)	TGI (SF-268 CNS)	GI50 (MCF7 breast)	GI50 (SF-268 CNS)	GI50 (RPMI-8226 leukemia)	GI50 (LOX IMVI melanoma)	GI50 (SR leukemia)	GI50 (M14 melanoma)
N#C/C(C(=O)Nc1ccc(Cl)cc1)=C(/N)N1CCCC1	> 100 µM	> 100 µM	> 100 µM	> 100 µM	> 100 µM	> 100 µM	> 100 µM	–	–	–	–	–	–	–	–	–
O=P(O)(O)c1ccccc1Oc1ccccc1	> 100 µM	> 100 µM	> 100 µM	> 100 µM	> 100 µM	–	> 100 µM	> 100 µM	> 100 µM	> 100 µM	–	–	–	–	–	–
OCCOCn1nncc1Cn1ncc2c(SCc3ccccc3)ncnc21	> 100 µM	> 100 µM	> 100 µM	–	> 100 µM	–	> 100 µM	> 100 µM	> 100 µM	> 100 µM	–	–	–	–	–	–
CSc1cc(=O)n2c3ccccc3c3ccnc1c32	> 100 µM	–	> 100 µM	> 100 µM	> 100 µM	–	–	–	> 100 µM	> 75.5 µM	–	–	–	–	–	–
C1=C2C3=[N+](CCCCC3)CC2Cc2ccsc21 (stereo not given)	> 100 µM	> 100 µM	> 100 µM	–	> 100 µM	–	> 100 µM	> 100 µM	> 100 µM	> 100 µM	–	–	–	–	–	–
COc1cc2cc(C(=O)N3C[C@H](CCl)c4c3cc(N)c3ccccc43)[nH]c2c(OC)c1OC	13 µM	< 0.005 µM	–	> 50 µM	0.0581 µM	> 50 µM	0.0137 µM	10.3 µM	–	1.74 µM	0.005 µM	0.005 µM	0.005 µM	0.005 µM	0.005 µM	0.005 µM
NCCCCNCCCNC(=O)c1nc(-c2nc(CCN)sc2Cl)sc1Cl	–	> 100 µM	–	> 100 µM	–	> 100 µM	> 100 µM	> 100 µM	37.1 µM	25.4 µM	–	–	–	–	–	–
COC(=O)[C@@H]1CCCCC[C@H]2C(CO)=C(C)C(=O)C12 (stereo not given in full)	–	> 100 µM	> 100 µM	> 100 µM	–	> 100 µM	> 100 µM	> 100 µM	> 100 µM	> 100 µM	–	–	–	–	–	–
COc1ccc(OC2OC(CO)C(OCc3ccccc3)C(OCc3ccccc3)C2OCc2ccccc2)cc1 (stereo not given)	> 100 µM	> 100 µM	> 100 µM	> 100 µM	> 100 µM	> 100 µM	> 100 µM	> 100 µM	–	> 100 µM	–	–	–	–	–	–
CN(C)CCNC(=O)c1cc(Cl)cc2ccc(-c3ccccc3)nc12	14.5 µM	–	17.1 µM	5.32 µM	6.7 µM	–	–	–	14.3 µM	19.2 µM	–	–	–	–	–	–
CCP(=O)(OC)C1=CCN(C(=O)OCC[Si](C)(C)C)CC1 (stereo not given)	> 100 µM	> 100 µM	> 100 µM	> 100 µM	> 100 µM	–	> 100 µM	> 100 µM	> 100 µM	> 100 µM	–	–	–	–	–	–
Cc1ccc2c(c1)-c1c(C#N)c(N)nc(-c3ccc(Cl)cc3)c1CCS2(=O)=O	> 100 µM	> 100 µM	> 100 µM	8.45 µM	> 100 µM	6.18 µM	> 100 µM	> 100 µM	–	> 100 µM	–	–	–	–	–	–
O=c1nc2c(c(-c3ccc(Br)cc3)[nH]1)COC/C2=C\c1ccc(Br)cc1	> 50 µM	> 50 µM	> 50 µM	> 50 µM	> 50 µM	–	> 50 µM	> 50 µM	> 50 µM	> 50 µM	–	–	–	–	–	–
CC(C)N1CC2CC(CN(C(=O)c3ccccc3)C2)C1	–	> 100 µM	> 100 µM	> 100 µM	> 100 µM	–	> 100 µM	> 100 µM	> 100 µM	> 100 µM	–	–	–	–	–	–
O=c1cc(-c2ccncc2)[nH]c2cc3c(cc12)OCO3	> 100 µM	> 100 µM	> 100 µM	> 100 µM	–	–	> 100 µM	> 100 µM	> 100 µM	> 100 µM	–	–	–	–	–	–
CN(C)CC1CCC/C(=C\c2ccc(OC(=O)c3ccc(Cl)cc3)cc2)C1=O (stereo not given)	1.58 µM	8.44 µM	10.6 µM	1.99 µM	1.98 µM	> 100 µM	3.27 µM	5.19 µM	–	9.07 µM	–	–	–	–	–	–
O=C(O)c1cccc2cccc(-c3cccc4cccc(C(=O)O)c34)c12	> 100 µM	> 100 µM	> 100 µM	–	> 100 µM	–	> 100 µM	> 100 µM	> 100 µM	> 100 µM	–	–	–	–	–	–
Cc1ccc(C(=O)N/N=C(\N=Nc2ccccc2)c2ccc(N(C)C)cc2)cc1	> 100 µM	–	> 100 µM	> 100 µM	> 100 µM	> 100 µM	> 100 µM	> 100 µM	–	> 100 µM	–	–	–	–	–	–
